ChEMBL document CHEMBL5634091, “Cantharidin analogue alleviates dextran sulfate sodium-induced colitis in mice by inhibiting the activation of NF-κB signaling” (Eur J Med Chem, 2023)
The source made the active and inactive calls. No cut-off for these calls is given here.

Tests used:
Mus musculus [1] = assay: Anti-inflammatory activity in po dosed C57BL/6 mouse model of DSS-induced acute ulcerative colitis assessed as reduction in IFN-gamma mRNA expression in colon administered once a day for 7 days by RT-PCR analysis; format: functional, organism-based; conditions: dose 100-300 mg/kg, time 7.0 day
DLD-1 [2] = assay: Inhibition of TNF-alpha induced MAPK signaling pathway activation in human DLD-1 cells assessed as decrease in phospho-ERK protein expression at 12.5 uM preincubated for 4 hrs and followed TNF-alpha stimulation and measured after 10 mins by Western blot analysis; format: cell-based; conditions: time 250.0 min
[3] = Toxicity in C57BL/6 mouse model of DSS-induced acute ulcerative colitis assessed as effect on spleen tissue at 100 to 300 mg/kg, po administered once a day for 7 days by H and E staining based analysis; format: organism-based; conditions: in vivo, 168 h, dose 100-300 mg/kg, time 7 day
DLD-1 [4] = assay: Effect on NF-kappaB p65 protein expression in TNF-alpha stimulated human DLD-1 cells at 12.5 to 50 uM preincubated for 4 hrs and followed TNF-alpha stimulation and measured after 10 mins by Western blot analysis; format: functional, cell-based; conditions: dose 12.5-50 µM, time 250.0 min
[5] = Cytotoxicity against TNF-alpha induced HEK293T cells assessed as inhibition of cell growth preincubated for 24 hrs followed by TNFalpha stimulation and measured after 4 hrs by SRB assay; format: toxicity, cell-based, HEK-293T; conditions: human, HEK293T cells induced with TNF-alpha; time 28 hrs
DLD-1 [6] = assay: Activation of MAPK signaling pathway in TNF-alpha stimulated human DLD-1 cells assessed as increase in phospho-ERK protein expression at 50 uM preincubated for 4 hrs and followed TNF-alpha stimulation and measured after 10 mins by Western blot analysis; format: cell-based; conditions: filed as activator, time 250.0 min
Mus musculus [7] = assay: Anti-inflammatory activity in po dosed C57BL/6 mouse model of DSS-induced acute ulcerative colitis assessed as reduction in IL-17A mRNA expression in colon administered once a day for 7 days by RT-PCR analysis; format: functional, organism-based; conditions: dose 100-300 mg/kg, time 7.0 day
HCT-116 [8] = assay: Inhibition of TNF-alpha induced NF-kB activation in human HCT-116 cells assessed as decrease in phosphorylated IKK protein expression preincubated for 4 hrs and followed TNF-alpha stimulation and measured after 10 mins by Western blot analysis; format: cell-based; conditions: dose 12.5-50 µM, time 250.0 min
DLD-1 [9] = assay: Inhibition of TNF-alpha induced NF-kB activation in human DLD-1 cells assessed as decrease in phosphorylated IkappaBalpha protein expression preincubated for 4 hrs and followed TNF-alpha stimulation and measured after 10 mins by Western blot analysis; format: cell-based; conditions: dose 12.5-50 µM, time 250.0 min
Mus musculus [10] = assay: Anti-inflammatory activity in C57BL/6 mouse model of DSS-induced acute ulcerative colitis assessed as reversal of DSS-induced weight loss at 100 to 300 mg/kg, po administered once a day for 7 days; format: functional, organism-based; conditions: dose 100-300 mg/kg, time 7.0 day
[11] = Selectivity index, ratio of CC50 for cytotoxicity against TNF-alpha induced HEK293T cells to IC50 for inhibition of TNF-alpha induced NF-kappaB activation in HEK293T cells; format: toxicity, cell-based; conditions: human, HEK293T cells induced with TNF-alpha; read-out: Ratio IC50
Mus musculus [12] = assay: Anti-inflammatory activity in C57BL/6 mouse model of DSS-induced acute ulcerative colitis assessed as increase in colon length at 100 to 300 mg/kg, po administered once a day for 7 days; format: functional, organism-based; conditions: dose 100-300 mg/kg, time 7.0 day
HCT-116 [13] = assay: Activation of MAPK signaling pathway in TNF-alpha stimulated human HCT-116 cells assessed as increase in phospho-JNK protein expression at 50 uM preincubated for 4 hrs and followed TNF-alpha stimulation and measured after 10 mins by Western blot analysis; format: cell-based; conditions: filed as activator, time 250.0 min

In the case of `COC(=O)C1=C(C(=O)OC)C2OC1CC2C#Cc1ccc(C)cc1` (stereo not drawn), the Activity (Mus musculus [1]) is reported as “Dose-Dependent Effect”, the inhibition (DLD-1 [2]) is reported as “Active” and the Activity [3] is reported as “Non-Toxic”. The Activity (DLD-1 [4]) was “inactive”, the CC50 at 4 h [5] was 94.3 µM and the Activity (DLD-1 [6]) was “Active”. The Activity (Mus musculus [7]) was “Dose-Dependent Effect”, the inhibition (HCT-116 [8]) was “Dose-Dependent Effect” and the inhibition (DLD-1 [9]) was “Dose-Dependent Effect”. The Activity (Mus musculus [10]) was “Active”, the selectivity ratio [11] was 5.85 and the Activity (Mus musculus [12]) was “Active”. The Activity (HCT-116 [13]) was “Active”.
